Earlier results, collected in US20040197397A1, “Drug delivery system for treatment of urinary incontinence” (Watson Pharmaceuticals, Inc., priority 2002, published 2004).

Conditions: free base

CCN(CC)CC#CCOC(=O)C(O)(c1ccccc1)C1CCCCC1 (stereo not shown) [Oxybutynin free base, Oxybutynin]
pKa: 10.3
